In one test the target is T1, rDHODH (Rattus norvegicus, UniProt Q63707).
T1 construct: using an N-terminally truncated recombinant DHODH enzyme as described previously[20]
The test is described as follows: rat DHODH inhibition assay. The class given is biochemical, rats. As to the method:
Inhibition of DHODH was measured in vitro using an N-terminally truncated recombinant DHODH enzyme as described previously. The final assay mixture contained 60 μM 2,6-dichloroindophenol, 50 μM decylubiquinone, 100 μM dihydroorotate, and the DHODH protein whose concentration was adjusted in a way that an average slope of approx. 0.2 AU/min served as the positive control (no inhibitor). Measurements were performed in 50 mM TrisHCl, 150 mM KCl, and 0.1% Triton X-100 at pH 8.0 and at 30°C with at least six different concentrations of a test compound. The reaction was started by adding dihydroorotate and measuring the absorption at 600 nm for 2 min. Each test compound concentration used for IC50 calculation was tested in at least three independent experiments.

Test [1] has as its system N27 rat dopaminergic neural cells. Kind of test: Nurr1-regulated gene expression (qPCR). The following applies: N27 cells, 0.3, 1 or 3 μM, 21 h, referenced to GAPDH. The class given is cell-based.
A further test concerns the target T2, Nurr1 LBD homodimer (Homo sapiens, UniProt P43354).
T2 construct: Biotinylated recombinant Nurr1 LBD protein and sGFP-Nurr1 LBD protein (FRET acceptor) were expressed and purified as described previously[28]; sGFP-Nurr1 LBD protein (FRET acceptor) were expressed and purified as described previously[28]; made in house
The test is described as follows: Nurr1 homodimerization assay (HTRF). Type of test: biochemical. The following applies: Tb3+-cryptate labeled Nurr1 LBD and sGFP labeled Nurr1 LBD. As to the method: Modulation of Nurr1 LBD homodimerization by 32 was studied in a homogenous time-resolved fluorescence resonance energy transfer (HTRF) based assay. Biotinylated recombinant Nurr1 LBD protein and sGFP-Nurr1 LBD protein (FRET acceptor) were expressed and purified as described previously. […] Free sGFP was added to keep the total GFP content stable at 0.5 μM. Assay solutions were prepared in HTRF assay buffer (25 mM HEPES pH 7.5, 10% (m/v) glycerol, 5 mM DTT) supplemented with 0.1% (w/v) CHAPS as well as 1% DMSO with 32 at fixed concentrations or DMSO alone as negative control (apo). The FRET donor complex formed from biotinylated Nurr1 LBD (final concentration 0.188 nM) and Tb-SA (0.375 nM) was kept constant while the concentration of sGFP-labeled protein was varied. Samples were equilibrated at RT for 2 h before fluorescence intensities (FI) after excitation at 340 nm were recorded at 520 nm for sGFP acceptor fluorescence and 620 nm for Tb-SA donor fluorescence on a Tecan SPARK plate reader (Tecan Group Ltd.). FI520 nm was divided by FI620 nm and multiplied with 10,000 to give a dimensionless HTRF signal.
In general terms: Time-resolved FRET reads energy transfer from a long-lived donor to a nearby acceptor.

The target of the next test is T3, Nurr1 (Homo sapiens, UniProt P43354).
T3 construct: expressed in transfected cells; host or cells: HEK293T
T3 sequence (P43354 360-595 limits assumed): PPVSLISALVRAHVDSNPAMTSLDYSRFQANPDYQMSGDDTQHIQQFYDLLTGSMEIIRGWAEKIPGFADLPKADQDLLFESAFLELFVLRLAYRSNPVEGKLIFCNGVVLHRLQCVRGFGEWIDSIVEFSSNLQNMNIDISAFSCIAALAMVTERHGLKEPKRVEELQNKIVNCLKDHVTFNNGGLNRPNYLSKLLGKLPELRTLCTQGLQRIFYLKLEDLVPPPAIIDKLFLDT
The test is described as follows: Gal4-Nurr1 hybrid reporter gene assay. Type of test: cell-based. Background: Reporter assays use an easily measured gene product as a stand-in for the process of interest.

Molecules are shown by their SMILES. Several values for one entry are separate records, joined by “and”; a condition that tells them apart may be missing. Identical values can stand only once.

T2 sequence (P43354 360-595 limits assumed): as above
T1 sequence (Q63707 31-395): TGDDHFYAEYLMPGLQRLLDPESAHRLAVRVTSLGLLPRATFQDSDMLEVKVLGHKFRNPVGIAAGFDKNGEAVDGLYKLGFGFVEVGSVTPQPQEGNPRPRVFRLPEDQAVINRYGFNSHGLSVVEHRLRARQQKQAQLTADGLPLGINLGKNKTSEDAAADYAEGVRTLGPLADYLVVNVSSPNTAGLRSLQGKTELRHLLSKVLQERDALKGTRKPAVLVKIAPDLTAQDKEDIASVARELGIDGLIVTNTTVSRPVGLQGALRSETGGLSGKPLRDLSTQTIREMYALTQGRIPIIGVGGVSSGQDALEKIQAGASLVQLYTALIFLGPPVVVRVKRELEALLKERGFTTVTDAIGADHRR

Consider `COc1cccc(-c2ccc(NC(=O)C3=C(c4nn[nH]n4)CCC3)c(F)c2)c1` [compound 32, N-{3-Fluoro-3’-methoxy-[1,1'-biphenyl]-4-yl}-2-(2H-tetrazol-5-yl)cyclopent-1-ene-1-carboxamide], for which 100 µM produced 64 ± 2% inhibition on rDHODH. In test [1], the “BDNF mRNA expression” value is “enhanced expression”, the “BIRC5 mRNA expression” value is listed as “robust induction”, the “CCND2 mRNA expression” value is given as “enhanced expression” and the “CRMP4 mRNA expression” value was “enhanced expression”. Moreover, in test [1], the “FLRT2 mRNA expression” value is reported as “enhanced expression”, the “SOD2 mRNA expression” value is “robust induction”, the “Sesn3 mRNA expression” value is recorded as “robust induction” and the “TH mRNA expression” value was “enhanced the expression”. The “XIAP mRNA expression” value in test [1] is listed as “robust induction”. In addition, at Nurr1 LBD homodimer, the “impact on Nurr1 dimer formation” value is listed as “robustly diminished Nurr1 dimer formation”. The “Nurr1 preference/selectivity over DHODH” value at Nurr1 is listed as > 100 fold. In addition, on Nurr1 (Gal4-Nurr1 hybrid reporter gene assay, HEK293T cells, mean ± S.E.M., n ≥ 3), the EC50 (usually the concentration at which the effect is half-maximal) was determined as 90 ± 10 nM. In addition, the “max. activation (Nurr1)” value at Nurr1 (Gal4-Nurr1 hybrid reporter gene assay, fold activation vs untreated control) is 2.5 fold and 2.5±0.1 fold. Besides, the “selectivity index DHODH/Nurr1” value at Nurr1 (IC50(DHODH) / EC50(Nurr1)) came out at 110. Besides, at Nurr1 (supplementary csv, max. activation in %), the efficacy_NR4A2 is 250%.
